Experimental data as given in article PMC9441481, “Risk assessment and molecular mechanism study of drug-drug interactions between rivaroxaban and tyrosine kinase inhibitors mediated by CYP2J2/3A4 and BCRP/P-gp” (Frontiers in Pharmacology, 2022).
Entries after “also recorded” stand apart in the source; their conditions may differ. Where two headings read alike, the source gives them in different places.

Tests used:
[1] = design: method as in Zheng et al., 2019; conditions: ref Zheng et al., 2019; cited from earlier work
[2] = design: method as in Mueck et al., 2013; conditions: ref Mueck et al., 2013; cited from earlier work
BCRP = target: T1, BCRP (Homo sapiens, UniProt Q9UNQ0); experiment: Bidirectional transport of rivaroxaban, ABCG2-MDCK vs mock-MDCK
T1 sequence (Q9UNQ0 1-655): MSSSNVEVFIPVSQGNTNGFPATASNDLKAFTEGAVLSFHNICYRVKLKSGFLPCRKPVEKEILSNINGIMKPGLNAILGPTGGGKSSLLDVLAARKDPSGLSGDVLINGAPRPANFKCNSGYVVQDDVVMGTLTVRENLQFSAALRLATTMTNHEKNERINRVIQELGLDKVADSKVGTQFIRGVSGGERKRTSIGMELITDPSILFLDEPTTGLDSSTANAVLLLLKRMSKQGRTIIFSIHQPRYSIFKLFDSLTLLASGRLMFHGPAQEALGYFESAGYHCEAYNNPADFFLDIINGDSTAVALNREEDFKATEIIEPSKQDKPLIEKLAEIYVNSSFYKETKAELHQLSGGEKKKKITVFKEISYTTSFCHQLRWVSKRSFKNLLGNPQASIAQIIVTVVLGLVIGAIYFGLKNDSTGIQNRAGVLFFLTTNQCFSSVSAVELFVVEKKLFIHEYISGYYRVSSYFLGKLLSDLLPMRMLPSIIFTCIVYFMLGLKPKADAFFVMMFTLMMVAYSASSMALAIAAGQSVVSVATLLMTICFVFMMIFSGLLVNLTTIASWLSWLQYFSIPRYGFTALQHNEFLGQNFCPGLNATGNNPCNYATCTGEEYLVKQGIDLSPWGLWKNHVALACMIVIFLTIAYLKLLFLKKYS
Description: (§1) The LC-MS/MS method was used to quantitatively determine rivaroxaban for cell and animal experiments. LC-MS/MS analysis was performed using an API 3200 triple-quadrupole mass spectrometer (Applied Biosystems, Concord, Ontario, Canada) and an Agilent LC system Agilent HP1200 (Agilent Technology Inc. CA, United States). The column was a Hypersil ODS-BP column (150 mm × 2.1 mm, 5 μm; Dalian Elite Analytical Instruments Co. Ltd. China). […] The flow rate of the mobile phase was 0.4 ml/min. The mobile phase contained acetonitrile and water with 0.2% (v/v) formic acid at 65:35 (v/v) for rivaroxaban in cell experiments. The determination of rivaroxaban in the blood was achieved by gradient elution methods with a mobile phase of acetonitrile (A) and pure water with 10 mM ammonium acetate (B).
(§2) Mock-MDCK, MDR1-MDCK, and ABCG2-MDCK cells were seeded in 24-well transwell inserts (0.33 cm^2, 0.4 μm) at a density of 2.5 × 10^5 cells/ml, and cells were allowed to culture for 3–5 days to form cell monolayers. The Millicell-ERS system was used to measure the TEER (Trans Epithelial Electric Resistance) values of the monolayers. […] Briefly, the monolayer was washed gently using 37°C HBSS (pH 7.4) and preincubated with HBSS for 10 min at 37°C. Then, various concentrations of TKIs were added to the HBSS on either the basolateral (total volume of 800 μl) or apical (total volume of 200 μl) side of the monolayers, and the cells in the transwell inserts were allowed to further incubate at 37°C for 2 h. At last, a 100-μl solution was taken from the other side for quantitative analysis by LC-MS/MS.
(§3) All pharmacokinetic parameters in the present study were analyzed using the Drug and Statistics software (DAS 2.0, Windows). In the bidirectional experiments, the apparent permeability values (Papp), efflux ratio (ER), and net flux ratio were calculated by Eqs. […] The transport of rivaroxaban was assessed to determine apparent Michaelis–Menten constants (Km,app). […] AP is transported from the apical to the basolateral side, and BL is transported from the basolateral to the apical side. Net flux ratiomax is the maximal effect, C is the concentration of rivaroxaban, and h is the Hill coefficient of the sigmoid model.

recombinant human CYP3A4 = recombinant human CYP3A4 (Homo sapiens, UniProt P08684); design: method as in Zhao et al., 2022; conditions: ref Zhao et al., 2022, cited from earlier work
P-gp [3] = target: T2, P-gp (Homo sapiens, UniProt P08183); experiment: Bidirectional transport of rivaroxaban, MDR1-MDCK vs mock-MDCK
Description: as §1, §2, §3

[4] = Rivaroxaban pharmacokinetics in rats, oral administration with or without TKIs; format: in vivo, Wistar rats
Description: as §1
(§4) To further investigate the DDI risk between rivaroxaban and the TKIs, the pharmacokinetic parameters were measured in Wistar rats (male, 160–200 g). The experiments were reviewed and approved by the Experimental Animal Centre of Dalian Medical University. […] All rats had free access to food and water and were fed adaptively for 7 days. […] Thirty-six rats were divided into six groups randomly. […] After centrifugation, the plasma proteins were precipitated using acetonitrile, followed by vortexing and centrifugation.
as §3

recombinant human CYP2J2 = target: T3, recombinant human CYP2J2 (Homo sapiens, UniProt P51589); design: method as in Zhao et al., 2022; conditions: ref Zhao et al., 2022, cited from earlier work
T3 sequence (P51589 1-502): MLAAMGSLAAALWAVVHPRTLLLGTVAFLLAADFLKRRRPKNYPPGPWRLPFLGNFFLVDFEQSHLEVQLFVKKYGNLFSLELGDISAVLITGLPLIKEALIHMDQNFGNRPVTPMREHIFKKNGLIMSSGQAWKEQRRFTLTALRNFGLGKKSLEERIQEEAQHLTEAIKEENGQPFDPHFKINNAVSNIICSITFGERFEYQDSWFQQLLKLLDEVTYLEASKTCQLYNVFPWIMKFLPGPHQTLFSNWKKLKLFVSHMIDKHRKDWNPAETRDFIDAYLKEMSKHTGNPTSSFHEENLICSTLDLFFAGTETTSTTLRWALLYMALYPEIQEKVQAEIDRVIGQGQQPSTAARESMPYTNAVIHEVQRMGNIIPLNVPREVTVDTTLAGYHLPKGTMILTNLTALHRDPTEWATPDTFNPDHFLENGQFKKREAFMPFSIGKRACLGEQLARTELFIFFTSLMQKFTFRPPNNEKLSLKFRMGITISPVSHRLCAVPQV

[5] = test system: pooled human liver microsomes (HLM); design: method as in Zhao et al., 2022; conditions: ref Zhao et al., 2022; read-out: Km of rivaroxaban metabolism, HLM; cited from earlier work
[6] = Rivaroxaban pharmacokinetics in rats, intravenous administration with or without imatinib; format: in vivo; conditions: male, Wistar, rat, plasma, 0.4 mg/kg, i.v.
Description: as §1, §4, §3

CYP2J2 and CYP3A4 = conditions: predicted increase in rivaroxaban exposure from CYP2J2 and CYP3A4 inhibition
Excerpt: Kinetic constants were included in the mechanistic static model to explore reversible inhibition and the TDI. […] In the present study, this model was designed to explore the contributions of enzyme inhibition in the prediction of DDI risk. The area under the curve ratio (AUC ratio/AUCR) in the presence of a pharmacokinetic DDI was used as the index, as described by Eq. 2.

[7] = test system: rivaroxaban metabolism in HLM; experiment: Inhibition of rivaroxaban metabolism in HLM incubation; format: in vitro ADME; conditions: human, pooled human liver microsomes, probe rivaroxaban (concentration chosen from Km, 22.81 μM for HLM), HLM 0.3 mg/mL, main metabolite formation, five independent experiments, read-out: IC50 of TKI inhibition of rivaroxaban metabolism, HLM
Description: The formation of the main metabolite of rivaroxaban in the CYP inhibition assays was quantitatively determined using HPLC. The mobile phase consisted of 60% methanol (A pump) and 40% pure water with 0.2% formic acid (B pump) with isocratic elution.
The inhibitory effect of the TKIs on the metabolism of rivaroxaban in recombined P450 isoforms and HLM incubations was compared by quantifiably detecting the production of the major metabolite using HPLC. The concentrations of HLM, CYP2J2, and CYP3A4 were 0.3, 0.4, and 0.6 mg mL^−1, respectively. […] Briefly, after 5-min preincubation of potential inhibitors with isoforms, NADPH was added to initiate the reaction. The reaction mixture was incubated at 37°C for 60 min, and ice acetonitrile was used for terminating the reaction. The ratio of major metabolite production of rivaroxaban in the TKI incubation group to that obtained in the control group represents the inhibitory activity.
To explore the inhibitory effects of the three TKIs on rivaroxaban metabolism, three concentrations of TKIs (1, 10, and 100 μM) were used to perform the in vitro enzyme incubations. The ratio of the rivaroxaban main metabolite formation in the incubation with the TKIs to that without inhibitors represented the inhibitory activity.
The IC50 values were obtained by nonlinear fitting of the TKI concentration and the remaining enzyme activity.

[8] = patients with solid tumors; ref Gschwind et al. (2005), Sparano et al. (2009), Di Gion et al. (2011), Scheffler et al. (2011); read-out: I (Cmax of patients with solid tumors); cited from earlier work
P-gp [9] = target: T2, P-gp; conditions: MDR1-MDCK cells, TKI 5 μM
Description: Mock-MDCK and MDR1-MDCK cells were seeded in six-well plates and grown to 80% confluency.

[10] = design: method as in Chong et al., 2020; conditions: rats; ref Chong et al., 2020; cited from earlier work
[11] = male, Wistar, rat, plasma, po, rivaroxaban 2.1 mg/kg, n = 5

T2 sequence (P08183 whole entry): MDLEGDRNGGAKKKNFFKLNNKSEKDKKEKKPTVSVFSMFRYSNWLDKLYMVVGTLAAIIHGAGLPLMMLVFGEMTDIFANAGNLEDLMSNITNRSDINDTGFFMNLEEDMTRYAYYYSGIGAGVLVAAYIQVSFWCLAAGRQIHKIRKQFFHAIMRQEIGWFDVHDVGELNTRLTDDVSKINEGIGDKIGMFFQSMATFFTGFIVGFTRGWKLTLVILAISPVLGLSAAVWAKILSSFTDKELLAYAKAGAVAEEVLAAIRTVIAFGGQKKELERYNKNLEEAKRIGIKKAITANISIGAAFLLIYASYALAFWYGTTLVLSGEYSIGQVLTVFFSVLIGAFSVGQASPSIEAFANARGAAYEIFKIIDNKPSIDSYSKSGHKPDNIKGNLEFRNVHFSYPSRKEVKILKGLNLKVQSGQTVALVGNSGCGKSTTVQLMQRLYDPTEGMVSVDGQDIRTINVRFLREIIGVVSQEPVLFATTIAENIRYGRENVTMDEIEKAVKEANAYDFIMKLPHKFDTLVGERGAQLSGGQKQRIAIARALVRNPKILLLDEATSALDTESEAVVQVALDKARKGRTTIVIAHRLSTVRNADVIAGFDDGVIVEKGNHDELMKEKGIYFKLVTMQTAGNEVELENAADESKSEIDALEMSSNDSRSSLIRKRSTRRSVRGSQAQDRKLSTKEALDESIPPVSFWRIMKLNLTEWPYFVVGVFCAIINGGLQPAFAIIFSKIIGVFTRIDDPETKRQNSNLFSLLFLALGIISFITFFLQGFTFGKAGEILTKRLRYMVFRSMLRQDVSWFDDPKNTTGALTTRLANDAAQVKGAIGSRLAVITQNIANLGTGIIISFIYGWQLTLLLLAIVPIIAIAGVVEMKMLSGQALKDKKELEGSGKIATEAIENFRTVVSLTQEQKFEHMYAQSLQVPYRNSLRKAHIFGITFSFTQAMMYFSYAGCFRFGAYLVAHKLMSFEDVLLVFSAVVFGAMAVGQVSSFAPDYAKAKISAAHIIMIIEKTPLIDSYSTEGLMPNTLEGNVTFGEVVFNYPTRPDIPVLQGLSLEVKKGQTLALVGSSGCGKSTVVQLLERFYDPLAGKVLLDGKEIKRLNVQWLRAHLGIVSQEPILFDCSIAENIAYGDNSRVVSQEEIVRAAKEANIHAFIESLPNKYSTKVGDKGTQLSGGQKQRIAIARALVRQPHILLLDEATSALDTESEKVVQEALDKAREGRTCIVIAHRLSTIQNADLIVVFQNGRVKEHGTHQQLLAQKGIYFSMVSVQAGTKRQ
recombinant human CYP3A4, sequence (P08684 whole entry): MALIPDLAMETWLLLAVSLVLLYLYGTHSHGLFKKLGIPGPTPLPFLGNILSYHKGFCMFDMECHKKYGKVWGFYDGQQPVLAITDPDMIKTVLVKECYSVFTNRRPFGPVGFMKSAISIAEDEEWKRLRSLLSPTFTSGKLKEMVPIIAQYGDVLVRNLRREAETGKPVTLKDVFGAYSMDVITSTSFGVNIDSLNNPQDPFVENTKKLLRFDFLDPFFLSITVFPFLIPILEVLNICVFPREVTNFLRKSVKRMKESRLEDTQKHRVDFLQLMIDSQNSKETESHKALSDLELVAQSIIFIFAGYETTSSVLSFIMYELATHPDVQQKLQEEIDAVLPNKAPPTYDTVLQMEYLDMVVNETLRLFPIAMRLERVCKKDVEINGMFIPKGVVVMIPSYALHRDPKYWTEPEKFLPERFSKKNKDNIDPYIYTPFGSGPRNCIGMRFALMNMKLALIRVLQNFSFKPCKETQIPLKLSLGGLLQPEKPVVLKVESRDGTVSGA

Which “increase of the AUC value of rivaroxaban” value [1] does the source give for CCOC(=O)[C@H](CCc1ccccc1)N[C@@H](C)C(=O)N1CCC[C@H]1C(=O)O [enalapril] here?
Its value is 20%.

What about the “increase of the Cmax value of rivaroxaban” value [1] of the same compound?
The value was 20%.

For O=C(NC[C@H]1CN(c2ccc(N3CCOCC3=O)cc2)C(=O)O1)c1ccc(Cl)s1 [Rivaroxaban], which “dose eliminated via hydrolysis of the amide bonds” value [2] is on record?
Its value is “approximately 14%”.

And the “Net flux ratio max, BCRP” value (BCRP; ABCG2-MDCK cells)?
Its value is 4.868 fold.

And the Km at 2 h (BCRP; human, pH 7.4)?
Its Km at 2 h is 3.46 µM.

And the “net flux ratio, transportation mediated by BCRP” value (BCRP; substrate identification)?
The value was “more than 2 folds”.

What about the “fraction of rivaroxaban metabolized by CYP3A4” value (recombinant human CYP3A4; input of static model) of the same compound?
The value was 0.025.

And the Km (recombinant human CYP3A4; read-out: Km of rivaroxaban metabolism, CYP3A4)?
Its Km is 47 µM.

What about the “Net flux ratio max, P-gp” value (P-gp [3]; MDR1-MDCK cells) of the same compound?
Its value is 10.300 fold.

And the Km at 2 h (P-gp [3]; human, MDCK, pH 7.4)?
The Km at 2 h was 8.42 µM.

And the “net flux ratio, transportation mediated by P-gp” value (P-gp [3]; substrate identification)?
The value was “more than 2 folds”.

What about the AUC(0-t) [4, 11] of the same compound?
The AUC(0-t) was 1550 ± 268 ng·h/mL.

And the Cmax [4, 11]?
The Cmax was 130 ± 22.7 ng/mL.

And the Tmax [4, 11]?
The Tmax was 4 h.

What about the “fraction of rivaroxaban metabolized by CYP2J2” value (recombinant human CYP2J2; input of static model) of the same compound?
Its value is 0.95.

What about the “catalytic efficiency of CYP2J2 relative to CYP3A4” value (recombinant human CYP2J2) of the same compound?
The value was “approximately 39 fold”.

What about the Km (recombinant human CYP2J2; read-out: Km of rivaroxaban metabolism, CYP2J2) of the same compound?
Its Km is 19.4 µM.

What about the Km [5] of the same compound?
Its Km is 22.8 µM.

What about the AUC(0-t) ([6]; n = 5) of the same compound?
Its AUC(0-t) is 4650 ± 446 ng·h/mL.

What about the Cmax ([6]; n = 5) of the same compound?
The Cmax was 3940 ± 780 ng/mL.

What about the clearance ([6]; n = 5, read-out: CL of rivaroxaban (converted)) of the same compound?
Its clearance is 1.38 mL/min/kg.

What about the half-life ([6]; n = 5, read-out: t1/2 of rivaroxaban (converted)) of the same compound?
Its half-life is 2.44 ± 0.757 h.

For CCN(CC)CCNC(=O)c1c(C)[nH]c(/C=C2\C(=O)Nc3ccc(F)cc32)c1C [Sunitinib], which “AUC increase (%)” value (CYP2J2 and CYP3A4) is on record?
The value was 2%.

And the “AUC increase (%)” value (CYP2J2 and CYP3A4; listed as sunitinib)?
The value was “not to cause a significant change”.

What about the IC50 at 60 min [7] of the same compound?
Its IC50 at 60 min is 84.2 ± 7.34 µM.

What about the Cmax [8] of the same compound?
The Cmax was 63 to 69.5 nM.

Which “intracellular fluorescence intensity of rhodamine 123 (fluorescence imaging)” value (P-gp [9]) does the source give for COc1cc2ncnc(Nc3ccc(F)c(Cl)c3)c2cc1OCCCN1CCOCC1 [Gefitinib] here?
The value was “slight increase”.

What about the “AUC increase (%)” value (CYP2J2 and CYP3A4) of the same compound?
Its value is 6–11%.

And the “AUC increase (%)” value (CYP2J2 and CYP3A4; listed as gefitinib)?
The value was “not to cause a significant change”.

What about the “effect on rivaroxaban exposure / pharmacokinetics in vivo” value ([4]; p.o.) of the same compound?
Its value is “almost did not affect; also recorded: did not show obvious changes”.

What about the Cmax [8] of the same compound?
Its Cmax is 190 to 356 nM.

What does the source list for Cc1ccc(NC(=O)c2ccc(CN3CCN(C)CC3)cc2)cc1Nc1nccc(-c2cccnc2)n1 [Imatinib]?
intracellular fluorescence intensity of rhodamine 123 (fluorescence imaging) (P-gp [9]): significantly increased; inhibition at 2 h, 5 µM (BCRP; human, pH 7.4): > 50%; inhibition at 2 h (P-gp [3]; human, pH 7.4): ~20%; IC50 at 60 min [7]: 1.7 ± 0.119 µM; Cmax [8]: 4170 to 9280 nM

With CCCSc1nc(N[C@@H]2C[C@H]2c2ccc(F)c(F)c2)c2nnn([C@@H]3C[C@H](OCCO)[C@@H](O)[C@H]3O)c2n1 [ticagrelor] as the compound, how does the “increase of the AUC of rivaroxaban” value [10] read?
Its value is “two folds”.
